In patent US11174226B2, “Azetidinimines as carbapenemases inhibitors” (priority 2015, dated 2021):

Key:
NDM-1 Enzyme = NDM-1 Enzyme (Klebsiella pneumoniae, UniProt C7C422); assay: Imipenem hydrolysis followed by UV absorbance slope, NDM-1 enzyme; assay type: biochemical; conditions: for inhibition at 5 µM: C 5 μM
Procedure: (§1) These tests were conducted by comparing UV absorbance slope measurements of impenem alone, and then imipenem with the concerned azetidinimines at given concentrations in the presence of the enzyme. It was thus possible to monitor the hydrolysis of imipenem. Lower the value of the slope, the higher is the percentage of inhibition of the enzyme.

OXA-48 Enzyme = OXA-48 Enzyme (Klebsiella pneumoniae, UniProt Q6XEC0); assay: Imipenem hydrolysis followed by UV absorbance slope, OXA-48 enzyme; assay type: biochemical; conditions: for inhibition at 10 µM / OXA-48 Enzyme Inhibition %: C 10 μM; for OXA-48 Enzyme, effect in words: Inhibition %, IC50
Procedure: as §1

KPC Enzyme = KPC Enzyme (Klebsiella pneumoniae, UniProt Q9F663); assay: Imipenem hydrolysis followed by UV absorbance slope, KPC enzyme; assay type: biochemical; conditions: for inhibition at 10 µM / KPC Enzyme Inhibition %: C 10 μM; for inhibition at 5 µM: C 5 μM
Procedure: as §1

[1] = Stability tests of imipenem with increasing concentrations of tested molecules
Procedure: as §1
Stability tests of imipenem with increasing concentrations of tested molecules of the present invention (T4#1, i.e. compound #1 of table 4; T4#7 i.e. compound #7 of table 4; T4#9 i.e. compound #9 of table 4; T4#2 i.e. compound #2 of table 4) were also conducted (Table 2).

OXA-48 Enzyme, sequence (Q6XEC0 23-265, looked up, species assumed): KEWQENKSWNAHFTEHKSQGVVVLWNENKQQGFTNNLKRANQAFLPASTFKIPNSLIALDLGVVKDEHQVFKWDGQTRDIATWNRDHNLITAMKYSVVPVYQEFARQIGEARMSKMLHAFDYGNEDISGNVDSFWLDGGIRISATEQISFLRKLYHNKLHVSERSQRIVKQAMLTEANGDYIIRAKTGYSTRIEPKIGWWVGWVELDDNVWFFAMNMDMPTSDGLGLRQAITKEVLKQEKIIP
NDM-1 Enzyme, sequence (C7C422 29-270, looked up, species assumed): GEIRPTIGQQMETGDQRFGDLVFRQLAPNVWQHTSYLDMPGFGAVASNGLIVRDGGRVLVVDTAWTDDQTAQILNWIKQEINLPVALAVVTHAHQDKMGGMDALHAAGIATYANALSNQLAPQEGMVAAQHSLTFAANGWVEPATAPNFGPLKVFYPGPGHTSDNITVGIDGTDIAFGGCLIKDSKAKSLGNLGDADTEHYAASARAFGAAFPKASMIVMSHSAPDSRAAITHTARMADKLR
KPC Enzyme, sequence (Q9F663 25-293, looked up): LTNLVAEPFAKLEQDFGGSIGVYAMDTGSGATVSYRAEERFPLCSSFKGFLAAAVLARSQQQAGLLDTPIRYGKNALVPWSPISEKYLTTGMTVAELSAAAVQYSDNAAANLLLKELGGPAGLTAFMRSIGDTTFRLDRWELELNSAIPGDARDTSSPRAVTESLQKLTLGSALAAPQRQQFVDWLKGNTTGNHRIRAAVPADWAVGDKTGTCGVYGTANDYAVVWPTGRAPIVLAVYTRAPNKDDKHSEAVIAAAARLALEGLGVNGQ

Row | Compound | IC50 (NDM-1 Enzyme) [µM] | IC50 (KPC Enzyme) [µM] | IC50 (OXA-48 Enzyme) [µM] | further results
1 | COc1ccc(C2C/C(=N\c3ccccc3)N2c2ccc(OC)cc2)cc1 (stereo not shown) | 5 to 10 |  |  | inhibition at 10 µM (NDM-1 Enzyme; C 10 μM): 67%; inhibition at 10 µM (OXA-48 Enzyme): 3%; inhibition at 10 µM (KPC Enzyme): 7%
2 | COc1ccc(N2/C(=N/c3ccccc3)CC2c2ccc(F)cc2)cc1 (stereo not shown) |  |  |  | inhibition at 10 µM (NDM-1 Enzyme; C 10 μM): 9%; OXA-48 Enzyme, effect in words (OXA-48 Enzyme): No reported effect; inhibition at 10 µM (KPC Enzyme): 10%
3 | COc1ccc(N2/C(=N/c3ccccc3)CC2c2cc(Cl)cc(Cl)c2)cc1 (stereo not shown) | 2.5 to 5 | 2.5 to 5 |  | inhibition at 5 µM (NDM-1 Enzyme): 97%; inhibition at 5 µM (OXA-48 Enzyme; C 5 μM): 15%; inhibition at 5 µM (KPC Enzyme): 84%
4 | COc1ccc(N2/C(=N/c3ccccc3)CC2c2ccc3ccccc3c2)cc1 (stereo not shown) | 2.5 to 5 | 5 to 7 | 10 to 20 | inhibition at 5 µM (NDM-1 Enzyme): 94%; inhibition at 20 µM (OXA-48 Enzyme; C 20 μM): 94%; inhibition at 10 µM (KPC Enzyme): 99%
5 | COc1ccc(N2/C(=N/c3ccccc3)CC2c2cccnc2)cc1 (stereo not shown) | > 100 | > 100 |  | inhibition at 100 µM (NDM-1 Enzyme; C 100 μM): 23%; OXA-48 Enzyme, effect in words (OXA-48 Enzyme): No reported effect; inhibition at 100 µM (KPC Enzyme; C 100 μM): 12%
6 | CSc1ccc(N2/C(=N/c3ccccc3)CC2c2ccccc2)cc1 (stereo not shown) | < 1 | < 10 |  | inhibition at 5 µM (NDM-1 Enzyme): 98%; inhibition at 10 µM (OXA-48 Enzyme): 15%; inhibition at 20 µM (KPC Enzyme; C 20 μM): 82%
7 | CCOc1ccc(N2/C(=N/c3ccccc3)CC2c2ccccc2)cc1 (stereo not shown) | 0.5 to 5 | < 5 | > 10 | inhibition at 5 µM (NDM-1 Enzyme): 100%; inhibition at 10 µM (OXA-48 Enzyme): 45%; inhibition at 5 µM (KPC Enzyme): 100%
8 | COc1ccc(N2/C(=N/c3ccc(I)cc3)CC2c2ccc(Cl)cc2)cc1 (stereo not shown) | 0.7 | 2.7 | 7.5 | 
9 | COc1ccc(N2/C(=N/c3ccc(I)cc3)CC2c2ccccc2)cc1 (stereo not shown) | 1.1 | 3.3 | 9.2 | 
10 | COc1ccc(N2/C(=N/c3ccc(Cl)cc3)CC2c2ccc(Cl)cc2)cc1 (stereo not shown) | 0.5 | 2.9 | > 50 | 
11 | COc1ccc(N2/C(=N/c3ccc(Cl)cc3)CC2c2ccccc2)cc1 (stereo not shown) |  | 2 | > 50 | inhibition at 10 µM (NDM-1 Enzyme; C 10 μM): 100%
12 | COc1ccc(N2/C(=N/c3ccc(C(F)(F)F)cc3)CC2c2ccc(Cl)cc2)cc1 (stereo not shown) |  | 3.6 | > 50 | inhibition at 10 µM (NDM-1 Enzyme; C 10 μM): 100%
13 | CCOc1ccc(N2/C(=N/c3ccc(OC)cc3)CC2c2ccc3ccccc3c2)cc1 (stereo not shown) | 0.6 | 2.4 | 7.4 | 
14 | CCOc1ccc(N2/C(=N/c3ccc(I)cc3)CC2c2ccc3ccccc3c2)cc1 (stereo not shown) | 0.5 | 2.5 | 6.2 | 
15 | COc1ccc(N2/C(=N/c3ccc(I)cc3)CC2c2cc(Cl)cc(Cl)c2)cc1 (stereo not shown) | 0.5 | 2.9 | 8.5 | 
16 | c1ccc(COc2ccc(N3/C(=N/c4ccccc4)CC3c3ccccc3)cc2)cc1 (stereo not shown) | 0.4 |  |  | inhibition at 10 µM (OXA-48 Enzyme): 31%; inhibition at 10 µM (KPC Enzyme): 86%
17 | COc1ccc(N2/C(=N/c3ccccc3)CC2c2ccccc2)cc1OC (stereo not shown) | 5 to 10 |  |  | inhibition at 10 µM (OXA-48 Enzyme): 9%; inhibition at 10 µM (KPC Enzyme): 17%
18 | c1ccc(/N=C2\CC(c3ccccc3)N2c2ccc3c(c2)OCO3)cc1 (stereo not shown) | 5 |  |  | inhibition at 10 µM (OXA-48 Enzyme): 20%; inhibition at 10 µM (KPC Enzyme): 6%
19 | c1ccc(/N=C2\CC(c3ccccc3)N2c2ccc3c(c2)OCCO3)cc1 (stereo not shown) | 1.3 | 5 to 10 | > 50 | 
20 | COc1cccc(N2/C(=N/c3ccccc3)CC2c2ccccc2)c1 (stereo not shown) | 1.3 | 5 to 10 | > 50 | 
21 | COc1cccc(N2/C(=N/c3ccccc3)CC2c2ccc(Cl)cc2)c1 (stereo not shown) | 0.4 | 2.5 to 5 | > 50 | 
22 | COc1ccccc1N1/C(=N/c2ccccc2)CC1c1ccc(Cl)cc1 (stereo not shown) | 1.1 | 5 to 10 | > 50 | 

Row | Compound | IC50 (NDM-1 Enzyme) [µM] | IC50 (KPC Enzyme) [µM] | IC50 (OXA-48 Enzyme) [µM] | further results
23 | COC(=O)c1ccc(C2C/C(=N\c3ccccc3)N2c2ccccc2)cc1 (stereo not shown) | 4.8 |  |  | inhibition at 10 µM (OXA-48 Enzyme): 3.5%; inhibition at 10 µM (KPC Enzyme): 6%
24 | c1ccc(/N=C2\CC(c3ccccc3)N2c2ccccc2)cc1 (stereo not shown) | 1.2 | 6 |  | OXA-48 Enzyme Inhibition % (OXA-48 Enzyme): No measurable effect at 10 μM
25 | CC(C)(C)OC(=O)c1ccc(C2C/C(=N\c3ccccc3)N2c2ccccc2)cc1 (stereo not shown) | 1.8 |  |  | inhibition at 10 µM (OXA-48 Enzyme): 32%; inhibition at 10 µM (KPC Enzyme): 45%
26 | CC(C)(C)OC(=O)COc1ccc(N2/C(=N/c3ccccc3)CC2c2ccc(Cl)cc2)cc1 (stereo not shown) | 2.6 | 1.3 | > 50 | 
27 | O=C(O)c1ccc(C2C/C(=N\c3ccccc3)N2c2ccccc2)cc1 (stereo not shown) | 0.7 | > 50 | > 50 | 
28 | O=C(O)COc1ccc(N2/C(=N/c3ccccc3)CC2c2ccc(Cl)cc2)cc1 (stereo not shown) | 0.6 | > 50 | > 50 | 
29 | Oc1ccc(N2/C(=N/c3ccccc3)CC2c2ccccc2)cc1 (stereo not shown) | 0.8 | > 50 | > 10 | 
30 | Oc1ccc(N2/C(=N/c3ccccc3)CC2c2ccc(Cl)cc2)cc1 (stereo not shown) | 3.6 | 5 to 7 | > 10 | 
31 | CC(C)(C)OC(=O)NCCOC(=O)c1ccc(C2C/C(=N\c3ccccc3)N2c2ccccc2)cc1 (stereo not shown) | 2.9 |  | > 50 | 
32 | ClCc1ccc(C2C/C(=N\c3ccccc3)N2c2ccccc2)cc1 (stereo not shown) | 2.5 | 6 |  | OXA-48 Enzyme Inhibition % (OXA-48 Enzyme): No measurable effect at 10 μM
33 | [N-]=[N+]=NCc1ccc(C2C/C(=N\c3ccccc3)N2c2ccccc2)cc1 (stereo not shown) |  |  | > 50 | inhibition at 10 µM (NDM-1 Enzyme; C 10 μM): 100%; inhibition at 10 µM (KPC Enzyme): 89%
34 | COc1ccc(N2/C(=N/c3ccccc3)CC2c2ccccc2)cc1 (single isomer, unassigned) [Enantiomer 1] | < 5 | < 10 |  | NDM-1 Enzyme Inhibition % (NDM-1 Enzyme; C 10 μM): 97%; KPC Enzyme Inhibition % (KPC Enzyme): 70%
35 | COc1ccc(N2/C(=N/c3ccccc3)CC2c2ccccc2)cc1 (single isomer, unassigned) [Enantiomer 2] | < 5 | > 10 |  | inhibition at 10 µM (NDM-1 Enzyme; C 10 μM): 95%; KPC Enzyme Inhibition % (KPC Enzyme): 45%
36 | COc1ccc(N2/C(=N/c3ccccc3)CC2c2ccccc2)cc1 (stereo not shown) [T4#1] |  |  |  | Slope (stability test of imipenem) ([1]; C 1 μM of tested molecule): 9; Slope (stability test of imipenem) ([1]; C 10 μM of tested molecule): 50; Slope (stability test of imipenem) ([1]; C 100 μM of tested molecule): 506
37 | COc1ccc(C2C/C(=N\c3ccccc3)N2c2ccccc2)cc1 (stereo not shown) [T4#2, (E)-N-(4-(4-methoxyphenyl)-1-phenylazetidin-2-ylidene)aniline] |  |  |  | Slope (stability test of imipenem) ([1]; C 1 μM of tested molecule): 3; Slope (stability test of imipenem) ([1]; C 10 μM of tested molecule): 30; Slope (stability test of imipenem) ([1]; C 100 μM of tested molecule): 321
38 | COc1cc(N2/C(=N/c3ccccc3)CC2c2ccccc2)cc(OC)c1OC (stereo not shown) [T4#7, (E)-N-(4-phenyl-1-(3,4,5-trimethoxyphenyl)azetidin-2-ylidene)aniline] |  |  |  | Slope (stability test of imipenem) ([1]; C 1 μM of tested molecule): 0; Slope (stability test of imipenem) ([1]; C 10 μM of tested molecule): 10; Slope (stability test of imipenem) ([1]; C 100 μM of tested molecule): 174
39 | COc1ccc(N2/C(=N/c3ccccc3)CC2c2ccc(Cl)cc2)cc1 (stereo not shown) [T4#9, (E)-N-(4-(4-chlorophenyl)-1-(4-methoxyphenyl)azetidin-2-ylidene)aniline] |  |  |  | Slope (stability test of imipenem) ([1]; C 1 μM of tested molecule): 2; Slope (stability test of imipenem) ([1]; C 10 μM of tested molecule): 38; Slope (stability test of imipenem) ([1]; C 100 μM of tested molecule): 390
40 | COc1ccc(N2/C(=N/c3ccccc3)CC2c2ccccc2)cc1 (stereo not shown) [drawing 74] | 2 to 5 | ~7 |  | inhibition at 10 µM (NDM-1 Enzyme; C 10 μM): 90%; OXA-48 Enzyme, effect in words (OXA-48 Enzyme): No reported effect
41 | COc1cc(N2/C(=N/c3ccccc3)CC2c2ccccc2)cc(OC)c1OC (stereo not shown) [drawing 75] | > 50 | > 50 |  | inhibition at 50 µM (NDM-1 Enzyme; C 50 μM): 78%; OXA-48 Enzyme, effect in words (OXA-48 Enzyme): No reported effect
42 | COc1ccc(N2/C(=N/c3ccccc3)CC2c2ccc(Cl)cc2)cc1 (stereo not shown) [drawing 76] | 2 to 5 |  |  | inhibition at 10 µM (NDM-1 Enzyme; C 10 μM): 96%; OXA-48 Enzyme IC50 (OXA-48 Enzyme): Solubility problems; inhibition at 50 µM (OXA-48 Enzyme; C 50 μM): 21%; inhibition at 50 µM (KPC Enzyme; C 50 μM): 44%
43 | COc1ccc(C2C/C(=N\c3ccccc3)N2c2ccccc2)cc1 (stereo not shown) [drawing 77] | > 10 |  |  | inhibition at 20 µM (NDM-1 Enzyme; C 20 μM): 58%; OXA-48 Enzyme, effect in words (OXA-48 Enzyme): No reported effect; KPC Enzyme, effect in words (KPC Enzyme; Inhibition %, IC50): No reported effect
